In PubChem BioAssay AID330 (DTP/NCI, 2004):
Values joined by “and” are separate entries in the source; they are usually repeats but may differ in a detail not shown here. Equal values may be shown once. Inconclusive results and toxic doses are left out. Rule for the calls: active = survival T/C of 150% or more; inactive = T/C below 125% in these data.

Test system: P388 leukemia ip, CD2F1 mice, survival T/C
Assay: NCI In Vivo Anticancer Drug Screen. Data for tumor model P388 Leukemia (intraperitoneal) in CD2F1 (CDF1) mice
Details: endpoint: median survival time, higher = longer survival
Outline: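 Mice carrying the transplanted tumor received test compound or vehicle. Survival was recorded in each group, and the value is the treated-group measurement divided by that of the vehicle-treated control group.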

[1] = dose: 25.0 mg/kg/injection, schedule: Q01DX009 (ip), vehicle: saline with Tween-80
[2] = dose: 50.0 mg/kg/injection, schedule: Q01DX009 (ip), vehicle: saline with Tween-80
[3] = dose: 50.0 mg/kg/injection, schedule: Q01DX009 (ip), vehicle: saline
[4] = dose: 50.0 mg/kg/injection, schedule: Q01DX005 (ip), vehicle: Klucel (hydroxypropylcellulose) (HPC)
[5] = dose: 100.0 mg/kg/injection, schedule: Q01DX005 (ip), vehicle: Klucel (hydroxypropylcellulose) (HPC)
[6] = dose: 200.0 mg/kg/injection, schedule: Q01DX005 (ip), vehicle: Klucel (hydroxypropylcellulose) (HPC)
[7] = dose: 25.0 mg/kg/injection, schedule: Q04DX003 (ip), vehicle: Klucel (hydroxypropylcellulose) (HPC)
[8] = dose: 60.0 mg/kg/injection, schedule: Q01DX005 (ip), vehicle: Klucel (hydroxypropylcellulose) (HPC)
[9] = dose: 120.0 mg/kg/injection, schedule: Q01DX005 (ip), vehicle: Klucel (hydroxypropylcellulose) (HPC)
[10] = dose: 240.0 mg/kg/injection, schedule: Q01DX005 (ip), vehicle: Klucel (hydroxypropylcellulose) (HPC)
[11] = dose: 100.0 mg/kg/injection, schedule: Q04DX002 (ip), vehicle: Klucel (hydroxypropylcellulose) (HPC)
[12] = dose: 200.0 mg/kg/injection, schedule: Q04DX002 (ip), vehicle: Klucel (hydroxypropylcellulose) (HPC)
[13] = dose: 100.0 mg/kg/injection, schedule: Q01DX009 (ip), vehicle: saline with Tween-80
[14] = dose: 50.0 mg/kg/injection, schedule: Q01DX005 (ip), vehicle: saline with Tween-80
[15] = dose: 100.0 mg/kg/injection, schedule: Q01DX005 (ip), vehicle: saline with Tween-80
[16] = dose: 60.0 mg/kg/injection, schedule: Q01DX005 (ip), vehicle: saline
[17] = dose: 120.0 mg/kg/injection, schedule: Q01DX005 (ip), vehicle: saline
[18] = dose: 240.0 mg/kg/injection, schedule: Q01DX005 (ip), vehicle: saline

Measured: T/C

O=C(O)c1c[nH]c2cc([N+](=O)[O-])ccc2c1=O
inactive: dose: 12.5 mg/kg/injection, schedule: Q01DX009 (ip), vehicle: saline with Tween-80 94 % of control | [1] 88 % of control | [2] 87 % of control | [3] 104 % of control

C=CCC12C=C(OC)C(=O)C=C1OC(c1ccc3c(c1)OCO3)C2C (stereo not given)
inactive: dose: 16.25 mg/kg/injection, schedule: Q01DX005 (ip), vehicle: Klucel (hydroxypropylcellulose) (HPC) 104 % of control | dose: 32.5 mg/kg/injection, schedule: Q01DX005 (ip), vehicle: Klucel (hydroxypropylcellulose) (HPC) 104 % of control | dose: 65.0 mg/kg/injection, schedule: Q01DX005 (ip), vehicle: Klucel (hydroxypropylcellulose) (HPC) 94 % of control | dose: 130.0 mg/kg/injection, schedule: Q01DX005 (ip), vehicle: Klucel (hydroxypropylcellulose) (HPC) 94 % of control

Cc1cc2c(cc1C)C(=O)C(N1CCOCC1)CCO2 (stereo not given)
inactive: dose: 100.0 mg/kg/injection, schedule: Q04DX003 (ip), vehicle: saline with Tween-80 99 % of control | dose: 200.0 mg/kg/injection, schedule: Q04DX003 (ip), vehicle: saline with Tween-80 99 % of control | dose: 400.0 mg/kg/injection, schedule: Q04DX003 (ip), vehicle: saline with Tween-80 96 % of control

N#CCCN(N)S(=O)(=O)c1ccc(Br)cc1
inactive: [4] 102 % of control | [5] 96 % of control | [6] 115 % of control

COc1cc(C(O)(CCN2CCOCC2)c2ccc3c(c2)OCO3)cc(OC)c1OC (stereo not given)
inactive: [4] 91 % of control | [5] 87 % of control

C=C(Cl)CNc1ccccc1C(=O)O
inactive: [7] 109 % of control and 97 % of control | dose: 50.0 mg/kg/injection, schedule: Q04DX003 (ip), vehicle: Klucel (hydroxypropylcellulose) (HPC) 109 % of control and 110 % of control | dose: 100.0 mg/kg/injection, schedule: Q04DX003 (ip), vehicle: Klucel (hydroxypropylcellulose) (HPC) 103 % of control and 95 % of control | dose: 200.0 mg/kg/injection, schedule: Q04DX003 (ip), vehicle: Klucel (hydroxypropylcellulose) (HPC) 94 % of control

O=C1C(Cc2ccccc2)C(=O)N2c3ccccc3C=CC2N1c1ccccc1 (stereo not given)
inactive: [8] 98 % of control | [9] 97 % of control | [10] 89 % of control

O=C1C2=C(Nc3ccccc3N2)OC1c1ccc(Cl)cc1 (stereo not given)
inactive: dose: 7.5 mg/kg/injection, schedule: Q01DX005 (ip), vehicle: Klucel (hydroxypropylcellulose) (HPC) 103 % of control | dose: 15.0 mg/kg/injection, schedule: Q01DX005 (ip), vehicle: Klucel (hydroxypropylcellulose) (HPC) 101 % of control | dose: 30.0 mg/kg/injection, schedule: Q01DX005 (ip), vehicle: Klucel (hydroxypropylcellulose) (HPC) 101 % of control

CCCCC1(CCCCCCCCCO)OCCO1
inactive: [11] 101 % of control | [12] 99 % of control | dose: 400.0 mg/kg/injection, schedule: Q04DX002 (ip), vehicle: Klucel (hydroxypropylcellulose) (HPC) 100 % of control

CC(C)NCC1CCc2cc(CO)c([N+](=O)[O-])cc2N1 (stereo not given)
inactive: [4] 105 % of control | [5] 107 % of control | [6] 106 % of control

CCC1C(OC)=CC2(CC)CC1(OC)OC2=O (stereo not given)
inactive: dose: 60.0 mg/kg/injection, schedule: Q01DX005 (ip), vehicle: saline with Tween-80 97 % of control | dose: 120.0 mg/kg/injection, schedule: Q01DX005 (ip), vehicle: saline with Tween-80 98 % of control | dose: 240.0 mg/kg/injection, schedule: Q01DX005 (ip), vehicle: saline with Tween-80 102 % of control

Cc1ccc(N=CN(C)C)c(Cl)c1
inactive: dose: 12.5 mg/kg/injection, schedule: Q04DX003 (ip), vehicle: Klucel (hydroxypropylcellulose) (HPC) 103 % of control | [7] 101 % of control

CC(=Nc1c(C)noc1/C=C/c1ccccc1)NO
inactive: dose: 12.5 mg/kg/injection, schedule: Q04DX002 (ip), vehicle: saline with Tween-80 104 % of control | dose: 25.0 mg/kg/injection, schedule: Q04DX002 (ip), vehicle: saline with Tween-80 97 % of control | dose: 50.0 mg/kg/injection, schedule: Q04DX002 (ip), vehicle: saline with Tween-80 95 % of control | dose: 100.0 mg/kg/injection, schedule: Q04DX002 (ip), vehicle: saline with Tween-80 87 % of control

C=CO/C(C)=C(\[Se]c1ccccc1)C(C)=O
inactive: [3] 99 % of control | dose: 100.0 mg/kg/injection, schedule: Q01DX009 (ip), vehicle: saline 100 % of control | dose: 200.0 mg/kg/injection, schedule: Q01DX009 (ip), vehicle: saline 104 % of control

O=C1C2CCCN2C(=S)N1c1ccccc1 (stereo not given)
inactive: [8] 96 % of control | [9] 91 % of control | [10] 94 % of control

CN1C(=O)CC(Sc2ccccc2)c2ccccc21 (stereo not given)
inactive: [1] 96 % of control | [2] 97 % of control | [13] 93 % of control

[B-][N+](C)(C)C
inactive: [14] 98 % of control | [15] 98 % of control

COc1ccc2sc(-c3ccccc3)cc(=O)c2c1CCl
inactive: dose: 100.0 mg/kg/injection, schedule: Q01DX001 (ip), vehicle: saline with Tween-80 94 % of control | dose: 200.0 mg/kg/injection, schedule: Q01DX001 (ip), vehicle: saline with Tween-80 97 % of control | dose: 400.0 mg/kg/injection, schedule: Q01DX001 (ip), vehicle: saline with Tween-80 100 % of control

CCNc1cc(N)[n+](CC)c2n[nH]c(/N=C/c3cc(Cl)cc(Cl)c3O)c12
inactive: [14] 97 % of control | [15] 87 % of control | dose: 200.0 mg/kg/injection, schedule: Q01DX005 (ip), vehicle: saline with Tween-80 93 % of control

N#CC(C#N)/C=C/[Se]c1ccccc1
inactive: dose: 100.0 mg/kg/injection, schedule: Q04DX003 (ip), vehicle: saline 104 % of control | dose: 200.0 mg/kg/injection, schedule: Q04DX003 (ip), vehicle: saline 98 % of control | dose: 400.0 mg/kg/injection, schedule: Q04DX003 (ip), vehicle: saline 109 % of control

N#CCCn1ccc2ccccc21
inactive: dose: 100.0 mg/kg/injection, schedule: Q04DX003 (ip), vehicle: other 113 % of control | dose: 200.0 mg/kg/injection, schedule: Q04DX003 (ip), vehicle: other 100 % of control | dose: 400.0 mg/kg/injection, schedule: Q04DX003 (ip), vehicle: other 90 % of control

CC(C)(C)c1cc2c(c(C(C)(C)C)c1)OP(F)(c1ccccc1)(c1ccccc1)N2
inactive: [2] 89 % of control | [13] 95 % of control | dose: 200.0 mg/kg/injection, schedule: Q01DX009 (ip), vehicle: saline with Tween-80 98 % of control

Cc1c2noc1CCCCCCCCCCC2
inactive: [4] 104 % of control | [5] 110 % of control | [6] 102 % of control

C#CCNC(=O)/C(C)=C(\C)c1ccc(F)cc1
inactive: dose: 50.0 mg/kg/injection, schedule: Q04DX002 (ip), vehicle: Klucel (hydroxypropylcellulose) (HPC) 101 % of control | [11] 103 % of control | [12] 111 % of control

C=CCN(CC=C)C1CCOC(OC)C1O (stereo not given)
inactive: dose: 30.0 mg/kg/injection, schedule: Q01DX005 (ip), vehicle: saline 100 % of control and 112 % of control | [16] 113 % of control [middle of 4 runs] | [17] 119 % of control [middle of 4 runs] | [18] 99 % of control and 119 % of control and 123 % of control

O=c1[nH]c(=O)n(C2CCCS2)cc1F (stereo not given)
inactive: dose: 37.5 mg/kg/injection, schedule: Q01DX009 (ip), vehicle: suspension in saline 100 % of control | dose: 75.0 mg/kg/injection, schedule: Q01DX009 (ip), vehicle: suspension in saline 100 % of control | dose: 150.0 mg/kg/injection, schedule: Q01DX009 (ip), vehicle: suspension in saline 97 % of control

CCC(C(=O)c1ccccc1)C1(C(=O)OC)NC(=S)NC(=O)C1C#N (stereo not given)
inactive: [16] 95 % of control | [17] 95 % of control | [18] 100 % of control

CNCCCc1cc(-c2ccc([N+](=O)[O-])cc2)n[nH]1
inactive: [11] 100 % of control | [12] 100 % of control
